Tests used:
Assay type in all cases: in vivo
Scirpus juncoides = experiment: Test Example 1: herbicidal activity, application before weed generation in submerged conditions (symbol B); details: application herbicide amount 320 g/ha
Method in brief: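 Weeds are sown into submerged alluvial soil alongside transplanted 2.5-leaf rice, and the compound, as an emulsion diluted to a set rate, is applied onto the water before emergence. Rating on the 0–5 herbicidal-ratio scale follows 3 weeks of greenhouse growth at 25–30 °C.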

Cyperus difformis = experiment: Test Example 3: herbicidal effect by foliage application, Wagner pot (symbol E); details: application herbicide amount 320 g/ha
Method in brief: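 Seeds sown in alluvial soil kept under 0.1–0.5 cm water, greenhouse 25–30 °C; 14 d growth. Leaves treated by small sprayer with water-diluted emulsion at a predetermined rate. Effect graded by set scale, 3 weeks.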

Alopecurus myosuroides = experiment: Test Example 4: herbicidal effect by soil treatment (symbol J)
Method in brief: (§1)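 Seeds were sown in sterilized diluvial soil, covered with about 1.5 cm of soil, and the soil surface was sprayed with a water-diluted emulsion of the compound at a predetermined rate. Plants grew in a greenhouse at 25° C. to 30° C.; effects were scored visually 3 weeks after application.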

Abutilon theophrasti [1] = experiment: Test Example 4: herbicidal effect by soil treatment (symbol M)
Method in brief: as §1

corn = experiment: Test Example 4: effect on crop by soil treatment (symbol c); details: for c: corn, effect on crop grade: application herbicide amount 320 g/ha; for c: corn, effect grade on crop: 320 g/ha
Method in brief: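 Steps: fill box with sterilized diluvial soil; sow seed spot-like; cover with ~1.5 cm soil; grow in greenhouse (25° C. to 30° C.).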

Digitaria ciliaris = experiment: Test Example 5: herbicidal effect by foliage application, plastic box (symbol F); details: 320 g/ha, 3 weeks after application
Method in brief: (§2)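 After sowing into sterilized diluvial soil and growing two weeks under glass at 25° C. to 30° C., seedlings receive a uniform foliar spray of diluted emulsion. Damage is judged visually three weeks on.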

Abutilon theophrasti [2] = experiment: Test Example 5: herbicidal effect by foliage application, plastic box (symbol M); details: 320 g/ha, 3 weeks after application
Method in brief: as §2

Amaranthus retroflexus = experiment: Test Example 5: herbicidal effect by foliage application, plastic box (symbol N); details: 320 g/ha, 3 weeks after application
Method in brief: as §2

Galium spurium = experiment: Test Example 5: herbicidal effect by foliage application, plastic box (symbol Q); details: 320 g/ha, 3 weeks after application
Method in brief: as §2

[3] = application herbicide amount 320 g/ha

Row | SMILES | Herbicidal effect grade, B: Scirpus juncoides (Scirpus juncoides) | herbicidal effect on E, grade 0-5 (Cyperus difformis) | J: Alopecurus myosuroides, herbicidal effect grade (Alopecurus myosuroides; [3]) | M: Abutilon theophrasti, herbicidal effect grade (Abutilon theophrasti [1]; [3]) | c: corn, effect on crop grade (corn) | F: Digitaria ciliaris, herbicidal effect grade (Digitaria ciliaris) | M: Abutilon theophrasti, herbicidal effect grade (Abutilon theophrasti [2]) | N: Amaranthus retroflexus, herbicidal effect grade (Amaranthus retroflexus) | Q: Galium spurium, herbicidal effect grade (Galium spurium) | J: Alopecurus myosuroides, herbicidal effect grade (Alopecurus myosuroides; 320 g/ha) | M: Abutilon theophrasti, herbicidal effect grade (Abutilon theophrasti [1]; 320 g/ha) | c: corn, effect grade on crop (corn) | F: Digitaria ciliaris, herbicidal effect (criteria 0-5) (Digitaria ciliaris) | M: Abutilon theophrasti, herbicidal effect (criteria 0-5) (Abutilon theophrasti [2]) | N: Amaranthus retroflexus, herbicidal effect (criteria 0-5) (Amaranthus retroflexus) | Q: Galium spurium, herbicidal effect (criteria 0-5) (Galium spurium)
1 | CCOC(=O)C(C(=O)CC1CC1)C1CC(O)=C(c2c(C)cc(C)cc2C)C1=O (stereo not drawn) [2-025] | 0 (Herbicidal ratio of 5% or lower (almost no effect)) | 0 (Herbicidal ratio of 5% or lower (almost no effect)) | 0 (Herbicidal ratio of 5% or lower (almost no effect)) | 0 (Herbicidal ratio of 5% or lower (almost no effect)) | 0 (Herbicidal ratio of 5% or lower (almost no effect)) | 4 (Herbicidal ratio of 70% or higher and lower than 90%) | 0 (Herbicidal ratio of 5% or lower (almost no effect)) | 0 (Herbicidal ratio of 5% or lower (almost no effect)) | 0 (Herbicidal ratio of 5% or lower (almost no effect)) |  |  |  |  |  |  | 
2 | CON=C(C)CC1CC(O)=C(c2c(C)cc(-c3ccc(Cl)cc3)cc2C)C1=O (mixture of isomers) [6-029] | 3 (Herbicidal ratio of 40% or higher and lower than 70%) | 5 (Herbicidal ratio of 90% or more (almost completely withered)) | 5 (Herbicidal ratio of 90% or more (almost completely withered)) | 0 (Herbicidal ratio of 5% or lower (almost no effect)) | 2 (Herbicidal ratio of 20% or higher and lower than 40%) | 5 (Herbicidal ratio of 90% or more (almost completely withered)) | 4 (Herbicidal ratio of 70% or higher and lower than 90%) | 5 (Herbicidal ratio of 90% or more (almost completely withered)) | 5 (Herbicidal ratio of 90% or more (almost completely withered)) |  |  |  |  |  |  | 
3 | CON=C(C)CC1CC(OC(=O)c2ccccc2OC(F)(F)F)=C(c2c(C)cc(C)cc2C)C1=O (stereo not drawn) [1-155] | 5 (Herbicidal ratio of 90% or more (almost completely withered)) | 5 (Herbicidal ratio of 90% or more (almost completely withered)) |  |  |  |  |  |  |  | 5 (Herbicidal ratio of 90% or more (almost completely withered)) | 5 (Herbicidal ratio of 90% or more (almost completely withered)) | 3 (Herbicidal ratio of 40% or higher and lower than 70%) | 5 (Herbicidal ratio of 90% or more (almost completely withered)) | 4 (Herbicidal ratio of 70% or higher and lower than 90%) | 2 (Herbicidal ratio of 20% or higher and lower than 40%) | 0 (Herbicidal ratio of 5% or lower (almost no effect))
4 | CON=C(C)C1CC(O)=C(c2c(C)cc(C)cc2C)C1=O (mixture of isomers) [3-002] | 0 (Herbicidal ratio of 5% or lower (almost no effect)) | 0 (Herbicidal ratio of 5% or lower (almost no effect)) | 0 (Herbicidal ratio of 5% or lower (almost no effect)) | 0 (Herbicidal ratio of 5% or lower (almost no effect)) | 0 (Herbicidal ratio of 5% or lower (almost no effect)) | 0 (Herbicidal ratio of 5% or lower (almost no effect)) | 0 (Herbicidal ratio of 5% or lower (almost no effect)) | 0 (Herbicidal ratio of 5% or lower (almost no effect)) | 0 (Herbicidal ratio of 5% or lower (almost no effect)) |  |  |  |  |  |  | 
5 | CCC(=O)CCC1CC(OC)=C(c2c(C)cc(C)cc2C)C1=O (stereo not drawn) [5-002] | 0 (Herbicidal ratio of 5% or lower (almost no effect)) | 0 (Herbicidal ratio of 5% or lower (almost no effect)) | 0 (Herbicidal ratio of 5% or lower (almost no effect)) | 0 (Herbicidal ratio of 5% or lower (almost no effect)) | 0 (Herbicidal ratio of 5% or lower (almost no effect)) | 0 (Herbicidal ratio of 5% or lower (almost no effect)) | 0 (Herbicidal ratio of 5% or lower (almost no effect)) | 0 (Herbicidal ratio of 5% or lower (almost no effect)) | 0 (Herbicidal ratio of 5% or lower (almost no effect)) |  |  |  |  |  |  | 
6 | CC(=O)C(C(C)=O)C1CC(O)=C(c2c(C)cc(C)cc2C)C1=O (stereo not drawn) [2-002] | 0 (Herbicidal ratio of 5% or lower (almost no effect)) | 0 (Herbicidal ratio of 5% or lower (almost no effect)) |  |  |  | 4 (Herbicidal ratio of 70% or higher and lower than 90%) | 0 (Herbicidal ratio of 5% or lower (almost no effect)) | 0 (Herbicidal ratio of 5% or lower (almost no effect)) | 2 (Herbicidal ratio of 20% or higher and lower than 40%) | 0 (Herbicidal ratio of 5% or lower (almost no effect)) | 0 (Herbicidal ratio of 5% or lower (almost no effect)) | 0 (Herbicidal ratio of 5% or lower (almost no effect)) |  |  |  | 
7 | CON=C(C)CC1CC(O)=C(c2c(C)cc(-c3ccc(Cl)nc3)cc2C)C1=O (mixture of isomers) [6-035] | 4 (Herbicidal ratio of 70% or higher and lower than 90%) | 5 (Herbicidal ratio of 90% or more (almost completely withered)) | 4 (Herbicidal ratio of 70% or higher and lower than 90%) | 0 (Herbicidal ratio of 5% or lower (almost no effect)) | 2 (Herbicidal ratio of 20% or higher and lower than 40%) | 5 (Herbicidal ratio of 90% or more (almost completely withered)) | 4 (Herbicidal ratio of 70% or higher and lower than 90%) | 5 (Herbicidal ratio of 90% or more (almost completely withered)) | 4 (Herbicidal ratio of 70% or higher and lower than 90%) |  |  |  |  |  |  | 
8 | CCOC(=O)C(C(=O)c1ccccc1)C1CC(O)=C(c2c(C)cc(C)cc2C)C1=O (stereo not drawn) [2-008] | 0 (Herbicidal ratio of 5% or lower (almost no effect)) | 0 (Herbicidal ratio of 5% or lower (almost no effect)) | 0 (Herbicidal ratio of 5% or lower (almost no effect)) | 0 (Herbicidal ratio of 5% or lower (almost no effect)) | 0 (Herbicidal ratio of 5% or lower (almost no effect)) | 2 (Herbicidal ratio of 20% or higher and lower than 40%) | 0 (Herbicidal ratio of 5% or lower (almost no effect)) | 1 (Herbicidal ratio of 5% or higher and lower than 20%) | 0 (Herbicidal ratio of 5% or lower (almost no effect)) |  |  |  |  |  |  | 
